Data published in patent US11547697B2, “Heterocyclic compounds and uses thereof” (MILLENNIUM PHARMACEUTICALS, INC., priority 2009, dated 2023).
Read-outs that look alike come from different tables or passages of the source.

Columns and labels:
Type in all cases: biochemical
p110α/p85α = p110α/p85α (Homo sapiens (Human), UniProt P42336); assay: PI 3-Kinase (human) HTRF assay, p110α/p85α
p110β/p85α = p110β/p85α (Homo sapiens (Human), UniProt P42338); assay: PI 3-Kinase (human) HTRF assay, p110β/p85α
Chain of p110β/p85α (P42338 whole entry): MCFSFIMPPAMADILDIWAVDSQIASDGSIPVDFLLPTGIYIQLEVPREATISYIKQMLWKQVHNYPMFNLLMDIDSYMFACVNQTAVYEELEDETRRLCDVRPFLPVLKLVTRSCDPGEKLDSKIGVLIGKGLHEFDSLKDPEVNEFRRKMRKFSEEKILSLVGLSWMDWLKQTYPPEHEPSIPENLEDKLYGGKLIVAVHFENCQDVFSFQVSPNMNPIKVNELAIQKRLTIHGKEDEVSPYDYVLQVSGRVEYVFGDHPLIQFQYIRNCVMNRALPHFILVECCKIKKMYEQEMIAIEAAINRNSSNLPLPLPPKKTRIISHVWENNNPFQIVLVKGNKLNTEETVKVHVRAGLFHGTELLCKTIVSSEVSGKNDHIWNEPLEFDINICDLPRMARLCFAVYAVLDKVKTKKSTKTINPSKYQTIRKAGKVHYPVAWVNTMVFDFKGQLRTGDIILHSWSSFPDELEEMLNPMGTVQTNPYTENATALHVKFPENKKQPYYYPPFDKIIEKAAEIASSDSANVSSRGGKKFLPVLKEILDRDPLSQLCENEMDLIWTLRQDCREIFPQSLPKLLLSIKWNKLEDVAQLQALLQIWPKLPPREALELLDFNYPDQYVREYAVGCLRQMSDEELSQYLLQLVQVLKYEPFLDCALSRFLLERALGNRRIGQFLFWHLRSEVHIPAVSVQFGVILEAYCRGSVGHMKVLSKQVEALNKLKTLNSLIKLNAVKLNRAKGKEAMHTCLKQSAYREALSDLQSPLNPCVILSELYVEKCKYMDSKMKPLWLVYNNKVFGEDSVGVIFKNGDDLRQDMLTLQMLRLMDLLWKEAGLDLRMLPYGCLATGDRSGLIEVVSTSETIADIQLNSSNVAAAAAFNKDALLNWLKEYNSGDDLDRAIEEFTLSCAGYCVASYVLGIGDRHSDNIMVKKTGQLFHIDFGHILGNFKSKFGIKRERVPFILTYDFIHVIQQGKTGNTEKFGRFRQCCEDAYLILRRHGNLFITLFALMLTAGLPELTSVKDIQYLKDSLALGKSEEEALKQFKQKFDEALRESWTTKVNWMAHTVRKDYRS
Chain of p110β/p85α (P27986 whole entry partner): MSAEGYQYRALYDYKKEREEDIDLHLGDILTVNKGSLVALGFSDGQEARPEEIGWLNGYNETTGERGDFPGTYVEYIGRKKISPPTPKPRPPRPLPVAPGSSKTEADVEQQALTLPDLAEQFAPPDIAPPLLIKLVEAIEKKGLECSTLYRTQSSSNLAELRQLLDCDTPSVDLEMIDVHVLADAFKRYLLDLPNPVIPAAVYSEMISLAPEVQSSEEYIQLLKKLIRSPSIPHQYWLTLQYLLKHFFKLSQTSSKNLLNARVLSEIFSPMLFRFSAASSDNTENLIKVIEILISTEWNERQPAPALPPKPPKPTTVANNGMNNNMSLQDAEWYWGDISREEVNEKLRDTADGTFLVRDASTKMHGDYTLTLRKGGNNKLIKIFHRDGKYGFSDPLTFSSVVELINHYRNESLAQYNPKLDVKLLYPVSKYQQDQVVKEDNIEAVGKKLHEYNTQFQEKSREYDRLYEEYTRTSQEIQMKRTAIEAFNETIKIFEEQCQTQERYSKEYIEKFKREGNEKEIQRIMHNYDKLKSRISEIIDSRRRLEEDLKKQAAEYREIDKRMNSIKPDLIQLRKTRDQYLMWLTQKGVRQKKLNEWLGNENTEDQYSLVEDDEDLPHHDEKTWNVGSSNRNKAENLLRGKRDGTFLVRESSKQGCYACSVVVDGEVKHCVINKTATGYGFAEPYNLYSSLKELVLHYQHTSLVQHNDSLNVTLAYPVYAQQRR

p110δ/p85α = p110δ/p85α (Homo sapiens (Human), UniProt O00329); assay: PI 3-Kinase (human) HTRF assay, p110δ/p85α
Chain of p110δ/p85α (O00329 whole entry): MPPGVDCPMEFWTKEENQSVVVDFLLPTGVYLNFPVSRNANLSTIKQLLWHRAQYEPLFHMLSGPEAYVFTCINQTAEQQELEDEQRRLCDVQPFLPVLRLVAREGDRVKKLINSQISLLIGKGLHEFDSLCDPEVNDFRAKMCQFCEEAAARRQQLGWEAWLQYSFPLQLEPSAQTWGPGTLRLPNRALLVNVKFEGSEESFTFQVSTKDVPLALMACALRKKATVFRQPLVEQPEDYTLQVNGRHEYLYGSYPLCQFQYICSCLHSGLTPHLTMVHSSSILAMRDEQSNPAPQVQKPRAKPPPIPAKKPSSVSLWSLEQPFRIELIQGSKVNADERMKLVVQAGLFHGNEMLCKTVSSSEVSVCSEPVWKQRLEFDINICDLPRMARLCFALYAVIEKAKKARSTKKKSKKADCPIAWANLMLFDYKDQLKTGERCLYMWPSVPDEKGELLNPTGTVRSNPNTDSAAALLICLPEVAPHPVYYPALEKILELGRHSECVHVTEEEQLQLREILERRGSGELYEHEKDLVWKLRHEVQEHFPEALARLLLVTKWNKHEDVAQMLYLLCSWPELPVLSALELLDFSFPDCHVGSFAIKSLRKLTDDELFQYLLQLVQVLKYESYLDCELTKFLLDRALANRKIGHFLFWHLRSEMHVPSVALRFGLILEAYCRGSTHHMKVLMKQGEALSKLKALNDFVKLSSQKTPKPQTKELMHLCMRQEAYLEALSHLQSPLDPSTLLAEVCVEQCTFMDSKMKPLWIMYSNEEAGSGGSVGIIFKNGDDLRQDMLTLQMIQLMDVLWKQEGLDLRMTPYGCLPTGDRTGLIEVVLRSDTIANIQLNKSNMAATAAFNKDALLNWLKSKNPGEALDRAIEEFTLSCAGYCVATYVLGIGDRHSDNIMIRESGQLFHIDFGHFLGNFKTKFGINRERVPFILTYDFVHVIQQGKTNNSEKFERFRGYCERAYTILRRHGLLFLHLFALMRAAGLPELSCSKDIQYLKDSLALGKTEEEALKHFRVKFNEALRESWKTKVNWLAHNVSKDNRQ
Chain of p110δ/p85α (P27986 whole entry partner): as the sequence (P27986 whole entry partner) above

p110γ = p110γ (Homo sapiens (Human), UniProt P48736); assay: PI 3-Kinase (human) HTRF assay, p110γ
Chain of p110γ (P48736 whole entry): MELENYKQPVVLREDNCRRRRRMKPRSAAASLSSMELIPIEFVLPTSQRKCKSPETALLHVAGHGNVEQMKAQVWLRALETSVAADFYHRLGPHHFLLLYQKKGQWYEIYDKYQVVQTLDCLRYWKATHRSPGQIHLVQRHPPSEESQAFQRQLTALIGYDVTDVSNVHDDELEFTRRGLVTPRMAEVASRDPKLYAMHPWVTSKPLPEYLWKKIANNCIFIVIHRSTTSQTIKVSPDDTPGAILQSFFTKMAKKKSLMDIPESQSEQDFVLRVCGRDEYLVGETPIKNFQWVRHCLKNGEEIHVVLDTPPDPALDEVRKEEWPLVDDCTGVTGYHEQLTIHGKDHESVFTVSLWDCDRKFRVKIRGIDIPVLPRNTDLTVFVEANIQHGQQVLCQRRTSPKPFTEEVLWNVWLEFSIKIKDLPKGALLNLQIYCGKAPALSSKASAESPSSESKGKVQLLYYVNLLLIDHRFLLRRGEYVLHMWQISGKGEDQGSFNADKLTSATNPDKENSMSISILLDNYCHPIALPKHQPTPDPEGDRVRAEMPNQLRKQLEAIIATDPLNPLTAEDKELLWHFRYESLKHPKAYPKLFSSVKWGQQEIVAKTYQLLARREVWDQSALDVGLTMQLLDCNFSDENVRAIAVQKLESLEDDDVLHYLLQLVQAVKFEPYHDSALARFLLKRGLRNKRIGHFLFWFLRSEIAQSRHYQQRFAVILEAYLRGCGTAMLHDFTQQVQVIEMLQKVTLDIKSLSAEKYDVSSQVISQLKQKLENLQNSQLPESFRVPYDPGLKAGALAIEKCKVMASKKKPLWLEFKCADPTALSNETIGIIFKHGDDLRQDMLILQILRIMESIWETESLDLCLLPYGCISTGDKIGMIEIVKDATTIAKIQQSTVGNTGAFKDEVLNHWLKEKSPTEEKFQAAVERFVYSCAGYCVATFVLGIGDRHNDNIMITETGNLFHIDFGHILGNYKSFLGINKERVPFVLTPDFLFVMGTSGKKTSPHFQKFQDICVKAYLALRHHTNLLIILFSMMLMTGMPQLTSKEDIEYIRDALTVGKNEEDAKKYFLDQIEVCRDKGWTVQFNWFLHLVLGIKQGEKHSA

[1] = in vitro, read-out: PI3K α IC50
[2] = in vitro, read-out: PI3K β IC50
[3] = in vitro, read-out: PI3K δ IC50
[4] = in vitro, read-out: PI3K γ IC50

Chain of p110α/p85α (P42336 whole entry): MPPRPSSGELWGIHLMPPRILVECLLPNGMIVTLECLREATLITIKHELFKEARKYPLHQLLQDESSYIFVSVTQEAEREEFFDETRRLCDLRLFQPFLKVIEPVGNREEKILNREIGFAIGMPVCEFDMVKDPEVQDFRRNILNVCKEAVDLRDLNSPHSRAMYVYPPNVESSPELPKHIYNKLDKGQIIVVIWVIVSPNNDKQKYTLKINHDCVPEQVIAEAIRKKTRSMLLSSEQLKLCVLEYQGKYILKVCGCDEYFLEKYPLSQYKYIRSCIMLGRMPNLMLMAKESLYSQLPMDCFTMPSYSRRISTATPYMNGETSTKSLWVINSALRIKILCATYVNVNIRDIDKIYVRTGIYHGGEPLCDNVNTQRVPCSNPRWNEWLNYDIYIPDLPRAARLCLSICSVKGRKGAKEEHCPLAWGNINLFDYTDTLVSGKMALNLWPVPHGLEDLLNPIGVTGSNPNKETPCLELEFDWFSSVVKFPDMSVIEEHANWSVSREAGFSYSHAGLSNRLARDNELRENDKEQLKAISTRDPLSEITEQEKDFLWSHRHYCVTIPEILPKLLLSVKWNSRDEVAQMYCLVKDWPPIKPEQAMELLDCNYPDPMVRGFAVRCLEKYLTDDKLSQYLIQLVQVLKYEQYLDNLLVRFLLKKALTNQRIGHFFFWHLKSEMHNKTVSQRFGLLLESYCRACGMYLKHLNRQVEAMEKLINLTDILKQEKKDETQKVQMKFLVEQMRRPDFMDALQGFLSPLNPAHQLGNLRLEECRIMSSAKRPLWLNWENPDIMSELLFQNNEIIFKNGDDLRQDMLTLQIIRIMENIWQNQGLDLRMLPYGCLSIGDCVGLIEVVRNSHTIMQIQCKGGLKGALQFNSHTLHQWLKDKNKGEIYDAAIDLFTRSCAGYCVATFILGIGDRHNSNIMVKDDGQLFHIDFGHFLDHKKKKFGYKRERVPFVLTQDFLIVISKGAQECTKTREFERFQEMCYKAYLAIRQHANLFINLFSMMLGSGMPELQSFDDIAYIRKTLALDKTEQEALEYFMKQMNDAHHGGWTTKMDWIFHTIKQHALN
Chain of p110α/p85α (P27986 whole entry partner): as the sequence (P27986 whole entry partner) above

IC50 (p110α/p85α; [1]) | IC50 (p110β/p85α; [2]) | IC50 (p110δ/p85α; [3]) | IC50 (p110γ; [4]) | IC50 (p110α/p85α; read-out: PI3K α IC50) | IC50 (p110β/p85α; read-out: PI3K β IC50) | IC50 (p110δ/p85α; read-out: PI3K δ IC50) | IC50 (p110γ; read-out: PI3K γ IC50) | Compound | further results
< 100 nM | < 1000 nM | < 10000 nM | < 10000 nM |  |  |  |  | CN1CCN([C@H]2CCN(c3cnc4ccc(-c5ccc6oc(N)nc6c5)cc4n3)C2)CC1 [compound 381] | 
< 100 nM | < 10000 nM | < 1000 nM | < 1000 nM |  |  |  |  | CC(=O)N1CCN(C2CN(c3cnc4ccc(-c5ccc6oc(N)nc6c5)cc4n3)C2)CC1 [compound 327] | 
< 100 nM | < 1000 nM | < 1000 nM | < 1000 nM |  |  |  |  | CN1CCN(CCNC(=O)c2cnc3ccc(-c4ccc5oc(N)nc5c4)cn23)CC1 [compound 306] | 
< 100 nM | < 1000 nM | < 1000 nM | < 1000 nM |  |  |  |  | Nc1nc2cc(-c3ccc4ncc(N5CC(N6CCOCC6)C5)nc4c3)cc(Cl)c2o1 [compound 358] | 
< 100 nM | < 10000 nM | < 10000 nM | < 100 nM |  |  |  |  | Nc1nc2cc(-c3ccc4ncc(N5CC[C@@H](N6CCOCC6)C5)nc4c3)ccc2o1 [compound 376] | 
< 10000 nM | < 1000 nM | < 10000 nM | < 10000 nM |  |  |  |  | CC(Oc1nc(-c2ccc3oc(N)nc3c2)cnc1N)C(F)(F)F (stereo not drawn) [compound 239] | 
< 100 nM | < 1000 nM | < 1000 nM | < 10000 nM |  |  |  |  | CCN1CCN(C2CN(c3cnc4ccc(-c5ccc6oc(N)nc6c5)cc4n3)C2)CC1 [compound 329] | 
< 1000 nM | < 1000 nM | < 1000 nM | < 10000 nM |  |  |  |  | CCN(CC)CCNc1cnc2ccc(-c3ccc4oc(N)nc4c3)cc2n1 [compound 218] | 
< 1000 nM | < 10000 nM | < 10000 nM | < 1000 nM |  |  |  |  | Cc1cc(-c2ccc3oc(N)nc3c2)cc2c(C(=O)N3CCOCC3)cnn12 [compound 357] | 
< 100 nM | < 10000 nM | < 10000 nM | < 1000 nM |  |  |  |  | CS(=O)(=O)CCN1CCN(C(=O)c2cnc3ccc(-c4ccc5oc(N)nc5c4)cn23)CC1 [compound 198] | 
< 100 nM | < 1000 nM | < 1000 nM | < 1000 nM |  |  |  |  | Nc1nc2cc(-c3ccc4ncc(N5CC(N6CCNCC6)C5)nc4c3)ccc2o1 [compound 326] | 

Continued, compound first:

Compound | IC50 (p110α/p85α; [1]) | IC50 (p110β/p85α; [2]) | IC50 (p110δ/p85α; [3]) | IC50 (p110γ; [4]) | IC50 (p110α/p85α; read-out: PI3K α IC50) | IC50 (p110β/p85α; read-out: PI3K β IC50) | IC50 (p110δ/p85α; read-out: PI3K δ IC50) | IC50 (p110γ; read-out: PI3K γ IC50) | further results
Nc1nc2ccc(-c3cc(F)c4oc(N)nc4c3)cc2o1 [compound 433] |  |  |  |  |  |  |  |  | IC50 (p110α/p85α; read-out: PI3K α In Vitro IC50): < 1000 nM; IC50 (p110β/p85α; read-out: PI3K β In Vitro IC50): < 1000 nM; IC50 (p110δ/p85α; read-out: PI3K δ In Vitro IC50): < 10000 nM; IC50 (p110γ; read-out: PI3K γ In Vitro IC50): < 100 nM
CN1CCC(N(C)c2ncnc3ccc(-c4ccc5oc(N)nc5c4)cc23)CC1 [compound 155] |  |  |  |  | < 100 nM | < 100 nM | < 1000 nM | < 100 nM | 
Nc1nc2cccc(-c3ccc4nccc(-c5ccncc5)c4c3)c2s1 [compound 17] |  |  |  |  | < 100 nM | < 1000 nM | < 1000 nM | < 100 nM | 
Nc1nsc2cc(-c3ccc4nccc(-c5ccncc5)c4c3)ccc12 [compound 13] |  |  |  |  | < 100 nM | < 1000 nM | < 1000 nM | < 1000 nM | 
Nc1nc2cc(-c3ccc4ncnc(NC5CCOCC5)c4c3)ccc2o1 [compound 24] |  |  |  |  | < 100 nM | < 1000 nM | < 100 nM | < 100 nM | 
CS(=O)(=O)N1CCN(c2cnc3ccc(-c4ccc5oc(N)nc5c4)cc3n2)CC1 [compound 86] |  |  |  |  | < 100 nM | < 1000 nM | < 1000 nM | < 100 nM | 
NCC(=O)N1CCN(c2cnc3ccc(-c4ccc5oc(N)nc5c4)cc3n2)CC1 [compound 192] |  |  |  |  | < 100 nM | < 1000 nM | < 1000 nM | < 1000 nM | 
CN(C)C1CCN(c2cnc3ccc(-c4ccc5oc(N)nc5c4)cc3n2)CC1 [compound 172] |  |  |  |  | < 100 nM | < 100 nM | < 100 nM | < 1000 nM | 
CC1CN(c2cnc3ccc(-c4ccc5oc(N)nc5c4)cc3n2)CCN1 (stereo not drawn) [compound 149] |  |  |  |  | < 100 nM | < 100 nM | < 10000 nM | < 1000 nM | 
CN1CCC(n2cnc3ccc(-c4cnc(Cl)c(NS(=O)(=O)c5ccccc5)c4)cc3c2=O)CC1 [compound 527] |  |  |  |  |  |  |  |  | IC50 (p110α/p85α; read-out: PI3K α In Vitro IC50): < 100 nM; IC50 (p110β/p85α; read-out: PI3K β In Vitro IC50): < 100 nM; IC50 (p110δ/p85α; read-out: PI3K δ In Vitro IC50): < 100 nM; IC50 (p110γ; read-out: PI3K γ In Vitro IC50): < 1000 nM
Cn1cc(-c2cnc3ccc(-c4ccc5oc(N)nc5c4)cc3n2)cn1 [compound 94] |  |  |  |  | < 100 nM | < 1000 nM | < 10000 nM | < 100 nM | 
Nc1nc2cc(-c3ccc4ncc(-c5cn[nH]c5)nc4c3)ccc2o1 [compound 78] |  |  |  |  | < 100 nM | < 1000 nM | < 1000 nM | < 100 nM | 
CN1CCN(c2ncnc3ccc(-c4ccc5oc(N)nc5c4)cc23)CC1 [compound 23] |  |  |  |  | < 100 nM | < 1000 nM | < 10000 nM | < 100 nM | 
